Converted amounts (≈) assume the structure as drawn. “Also recorded” adds a separate entry of the source. Read-outs that look alike come from different tables or passages of the source.
Assays:
Type in all cases: physicochemical
[1] = Effect of crystal form on stability, high humidity test for 5 days (XRD); settings: room temperature, unsealed, desiccator with saturated potassium nitrate
Procedure: Evaluation on effect of crystal form on stability—high humidity test for 5 days
(§1) The amorphous form obtained in Example 11, crystal form IV obtained in Example 3, crystal form I obtained in Example 6, and crystal form II obtained in Example 8 were each taken 30 mg, in triplicate, put into a penicillin bottle, which is transferred, without being sealed, at room temperature into a desiccator with saturated potassium nitrate at the bottom, and the samples were taken after 5 days and tested by XRD.

[2] = Effect of crystal form on stability, high temperature test for 5 days (XRD); settings: 60° C., unsealed
Procedure: Evaluation on effect of crystal form on stability—high temperature test for 5 days
as §1, with “to QG 2003 ba incubation and drying oven, of which the” for “at room”, “was adjusted to 60° C. The” for “into a desiccator with saturated potassium nitrate at the bottom, and the”

[3] = Solubility of crystal forms in different environments
Text: The solubilities (μg/mL) of crystal form I in different environments are shown in […]

[4] = Stability in solution within 24 hours
[5] = Accelerated stability test for 30 days (XRD); settings: 40° C., sealed bags
Procedure: Evaluation for accelerated stability of crystal forms I, II and IV
Crystal form IV obtained in Example 3, crystal form I obtained in Example 6, and crystal form II obtained in Example 8 were each taken 30 mg, in triplicate, put into sealed bags, which is transferred into BPN-80CH CO2 incubator, of which the temperature was set at 40° C. The samples were taken after 30 days and tested by XRD.

[6] = Simulated fasting intestinal fluid (FaSSIF), R.T. (25° C.)
[7] = Simulated gastric fluid (SGF), 37° C.
[8] = Simulated gastric fluid (SGF), R.T. (25° C.)
[9] = Simulated gastric fluid (SGF), Ultrasonic
[10] = Simulated postprandial intestinal fluid (FeSSIF), 37° C.
[11] = Simulated postprandial intestinal fluid (FeSSIF), R.T. (25° C.)
[12] = Simulated postprandial intestinal fluid (FeSSIF), Ultrasonic
[13] = pH 1.2 hydrochloric acid solution, 37° C.
[14] = pH 1.2 hydrochloric acid solution, R.T. (25° C.)
[15] = pH 1.2 hydrochloric acid solution, Ultrasonic
[16] = pH 4.5 acetic acid-sodium acetate solution, 75° C.
[17] = pH 4.5 acetic acid-sodium acetate solution, R.T. (25° C.)
[18] = Simulated fasting intestinal fluid (FaSSIF)
[19] = Simulated postprandial intestinal fluid (FeSSIF)
[20] = pH 1.2 hydrochloric acid solution
[21] = pH 4.5 acetic acid-sodium acetate solution

COc1ncc(-c2ccc3ncc(C#N)c(N4CCOC[C@H]4C)c3c2)cc1NS(C)(=O)=O [amorphous form, (R)-N-(5-(3-cyano-4-(3-methylmorpholinyl)quinolin-6-yl)-2-methoxypyridin-3-yl)methanesulfonamide, reference compound]
solid-form stability, change of XRD after high humidity test [1]: obvious crystal transformation; also recorded: significant crystal transformation | solid-form stability, change of XRD after high temperature test [2]: obvious crystal transformation; also recorded: significant crystal transformation

COc1ncc(-c2ccc3ncc(C#N)c(N4CCOC[C@H]4C)c3c2)cc1NS(C)(=O)=O [crystal form I, (R)-N-(5-(3-cyano-4-(3-methylmorpholinyl)quinolin-6-yl)-2-methoxypyridin-3-yl)methanesulfonamide]
solubility [3, 6]: 2.07 µg/mL (≈ 4.56 µM) | solubility [3, 7]: 167.38 µg/mL (≈ 369 µM) | solubility [3, 8]: 99.81 µg/mL (≈ 220 µM) | solubility [3, 9]: 119.65 µg/mL (≈ 264 µM) | solubility [3, 10]: 11.35 µg/mL (≈ 25 µM) | solubility [3, 11]: 8.09 µg/mL (≈ 17.8 µM) | solubility [3, 12]: 9.46 µg/mL (≈ 20.9 µM) | solubility ([3]; pH 1.2 hydrochloric acid solution, 75 °C, pH 1.2, simulated gastric fluid, thermodynamic from solid, pH 1.2 hydrochloric acid solution, 75° C., read-out: solubility): 868 µg/mL (≈ 1910 µM) | solubility [3, 13]: 404.30 µg/mL (≈ 891 µM) | solubility [3, 14]: 275.20 µg/mL (≈ 607 µM) | solubility [3, 15]: 294.60 µg/mL (≈ 650 µM) | solubility ([3]; pH 4.5 acetic acid-sodium acetate solution, 37 °C, pH 4.5, aqueous buffer, thermodynamic from solid, pH 4.5 acetic acid-sodium acetate solution, 37° C., read-out: solubility): 1.67 µg/mL (≈ 3.68 µM) | solubility ([3]; pH 4.5 acetic acid-sodium acetate solution, pH 4.5, aqueous buffer, thermodynamic from solid, pH 4.5 acetic acid-sodium acetate solution, Ultrasonic, read-out: solubility): 1.56 µg/mL (≈ 3.44 µM) | solubility [3, 16]: 1.55 µg/mL (≈ 3.42 µM) | solubility [3, 17]: 1.29 µg/mL (≈ 2.84 µM) | solubility ([3]; pH 6.8 PBS solution, 25 °C, pH 6.8, aqueous buffer, thermodynamic from solid, pH 6.8 PBS solution, R.T. (25° C.), read-out: solubility): 3.58 µg/mL (≈ 7.89 µM) | solubility ([3]; pH 6.8 PBS solution, 37 °C, pH 6.8, aqueous buffer, thermodynamic from solid, pH 6.8 PBS solution, 37° C., read-out: solubility): 1.51 µg/mL (≈ 3.33 µM) | solubility ([3]; pH 6.8 PBS solution, 75 °C, pH 6.8, aqueous buffer, thermodynamic from solid, pH 6.8 PBS solution, 75° C., read-out: solubility): 1.41 µg/mL (≈ 3.11 µM) | solubility ([3]; pH 6.8 PBS solution, pH 6.8, aqueous buffer, thermodynamic from solid, pH 6.8 PBS solution, Ultrasonic, read-out: solubility): 2.79 µg/mL (≈ 6.15 µM) | solubility ([3]; simulated fasting intestinal fluid (FaSSIF), 37 °C, fassif, thermodynamic from solid, Simulated fasting intestinal fluid (FaSSIF), 37° C., read-out: solubility): 2.87 µg/mL (≈ 6.33 µM) | solubility ([3]; simulated fasting intestinal fluid (FaSSIF), 75 °C, fassif, thermodynamic from solid, Simulated fasting intestinal fluid (FaSSIF), 75° C., read-out: solubility): 8.64 µg/mL (≈ 19.1 µM) | solubility ([3]; simulated fasting intestinal fluid (FaSSIF), fassif, thermodynamic from solid, Simulated fasting intestinal fluid (FaSSIF), Ultrasonic, read-out: solubility): 4.76 µg/mL (≈ 10.5 µM) | solubility ([3]; simulated gastric fluid (SGF), 75 °C, simulated gastric fluid, thermodynamic from solid, Simulated gastric fluid (SGF), 75° C., read-out: solubility): 432 µg/mL (≈ 952 µM) | solubility ([3]; simulated postprandial intestinal fluid (FeSSIF), 75 °C, fessif, thermodynamic from solid, Simulated postprandial intestinal fluid (FeSSIF), 75° C., read-out: solubility): 18.9 µg/mL (≈ 41.7 µM) | solubility ([3]; water, 25 °C, water, thermodynamic from solid, Water, R.T. (25° C.), read-out: solubility): 3.84 µg/mL (≈ 8.47 µM) | solubility ([3]; water, 37 °C, water, thermodynamic from solid, Water, 37° C., read-out: solubility): 3.87 µg/mL (≈ 8.53 µM) | solubility ([3]; water, 75 °C, water, thermodynamic from solid, Water, 75° C., read-out: solubility): 2.24 µg/mL (≈ 4.94 µM) | solubility ([3]; water, thermodynamic from solid, Water, Ultrasonic, read-out: solubility): 4.63 µg/mL (≈ 10.2 µM) | Stability [4, 18]: Stable within | Stability ([4]; Simulated gastric fluid (SGF)): Stable within | Stability [4, 19]: Stable within | Stability ([4]; Water): Stable within | Stability [4, 20]: Stable within | Stability [4, 21]: Stable within | Stability ([4]; pH 6.8 PBS solution): Stable within | solid-form stability, change of XRD after high humidity test [1]: barely no change | solid-form stability, change of XRD after high humidity test ([1]; listed as Crystal form I): stable | solid-form stability, change of XRD after high temperature test [2]: barely no change | solid-form stability, change of XRD after high temperature test ([2]; listed as Crystal form I): stable | solid-form stability, change of XRD after accelerated stability test [5]: barely no change; also recorded: stable

COc1ncc(-c2ccc3ncc(C#N)c(N4CCOC[C@H]4C)c3c2)cc1NS(C)(=O)=O [crystal form II, (R)-N-(5-(3-cyano-4-(3-methylmorpholinyl)quinolin-6-yl)-2-methoxypyridin-3-yl)methanesulfonamide]
solid-form stability, change of XRD after high humidity test [1]: barely no change; also recorded: stable | solid-form stability, change of XRD after high temperature test [2]: barely no change; also recorded: stable | solid-form stability, change of XRD after accelerated stability test [5]: barely no change; also recorded: stable

COc1ncc(-c2ccc3ncc(C#N)c(N4CCOC[C@H]4C)c3c2)cc1NS(C)(=O)=O [crystal form IV, (R)-N-(5-(3-cyano-4-(3-methylmorpholinyl)quinolin-6-yl)-2-methoxypyridin-3-yl)methanesulfonamide]
solubility ([3]; Simulated fasting intestinal fluid (FaSSIF), 37° C.): 4.70 µg/mL (≈ 10.4 µM) | solubility ([3]; Simulated fasting intestinal fluid (FaSSIF), 75° C.): 5.12 µg/mL (≈ 11.3 µM) | solubility [3, 6]: 6.05 µg/mL (≈ 13.3 µM) | solubility ([3]; Simulated fasting intestinal fluid (FaSSIF), Ultrasonic): 5.43 µg/mL (≈ 12 µM) | solubility [3, 7]: 655.37 µg/mL (≈ 1450 µM) | solubility ([3]; Simulated gastric fluid (SGF), 75° C.): 766.58 µg/mL (≈ 1690 µM) | solubility [3, 8]: 533.36 µg/mL (≈ 1180 µM) | solubility [3, 9]: 570.49 µg/mL (≈ 1260 µM) | solubility [3, 10]: 26.02 µg/mL (≈ 57.4 µM) | solubility ([3]; Simulated postprandial intestinal fluid (FeSSIF), 75° C.): 28.48 µg/mL (≈ 62.8 µM) | solubility [3, 11]: 31.70 µg/mL (≈ 69.9 µM) | solubility [3, 12]: 29.70 µg/mL (≈ 65.5 µM) | solubility ([3]; Water, 37° C.): 2.39 µg/mL (≈ 5.27 µM) | solubility ([3]; Water, 75° C.): 2.98 µg/mL (≈ 6.57 µM) | solubility ([3]; Water, R.T. (25° C.)): 2.68 µg/mL (≈ 5.91 µM) | solubility ([3]; Water, Ultrasonic): 2.96 µg/mL (≈ 6.53 µM) | solubility [3, 13]: 1431.40 µg/mL (≈ 3160 µM) | solubility ([3]; pH 1.2 hydrochloric acid solution, 75° C.): 1516.50 µg/mL (≈ 3340 µM) | solubility [3, 14]: 1283.50 µg/mL (≈ 2830 µM) | solubility [3, 15]: 1289.40 µg/mL (≈ 2840 µM) | solubility ([3]; pH 4.5 acetic acid-sodium acetate solution, 37° C.): 3.04 µg/mL (≈ 6.7 µM) | solubility [3, 16]: 3.45 µg/mL (≈ 7.61 µM) | solubility [3, 17]: 2.75 µg/mL (≈ 6.06 µM) | solubility ([3]; pH 4.5 acetic acid-sodium acetate solution, Ultrasonic): 3.04 µg/mL (≈ 6.7 µM) | solubility ([3]; pH 6.8 PBS solution, 37° C.): 2.18 µg/mL (≈ 4.81 µM) | solubility ([3]; pH 6.8 PBS solution, 75° C.): 2.62 µg/mL (≈ 5.78 µM) | solubility ([3]; pH 6.8 PBS solution, R.T. (25° C.)): 2.12 µg/mL (≈ 4.67 µM) | solubility ([3]; pH 6.8 PBS solution, Ultrasonic): 2.48 µg/mL (≈ 5.47 µM) | Stability [4, 18]: Stable within | Stability ([4]; Simulated gastric fluid (SGF)): Stable within | Stability [4, 19]: Stable within | Stability ([4]; Water): Stable within | Stability [4, 20]: Stable within | Stability [4, 21]: Stable within | Stability ([4]; pH 6.8 PBS solution): Stable within | solid-form stability, change of XRD after high humidity test [1]: barely no change; also recorded: stable | solid-form stability, change of XRD after high temperature test [2]: barely no change; also recorded: stable | solid-form stability, change of XRD after accelerated stability test [5]: barely no change; also recorded: stable

From US20230029066A1, “CRYSTAL FORMS OF FUSED RING COMPOUND, AND COMPOSITION THEREOF, PREPARATION METHOD THEREFOR AND APPLICATION THEREOF” (HANGZHOU YUSHENG MEDICAL TECHNOLOGY CO. LTD, priority 2019, published 2023)
